Legend:
Format in all cases: in vivo
[1] = tested on: fall armyworm larvae (Spodoptera frugiperda); assay: Spodoptera frugiperda spray test; conditions: 168 h, maize leaf sections, after 7 days
Outline: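 Percent larval kill read at day 7, from 0% (no caterpillars dead) to 100% (all dead). Larvae were placed on dried Zea mays leaf discs previously sprayed with test preparations made from an acetone/DMF solution diluted in 1000 ppm emulsifier-containing water.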

[2] = tested on: adult Blattella germanica strain PAULINIA; assay: Blattella germanica test (BLTTGE surface treatment & contact assay); conditions: surface concentration 20 mg/m^2, 30 minutes exposure, 24 hours after contact, read-out: mortality (efficacy)
Description: Blattella germanica Test (BLTTGE Surface Treatment & Contact Assay)
(§1) Solvent: Aceton+2000 ppm rapeseed oil methyl ester (RME)
(§2) In order to produce a sufficient, active ingredient containing solution it is necessary to solve the test compound in the solvent-mix (acetone at 2 mg/ml/RME 2000 ppm). This solution is pipetted onto a glazed tile and after evaporation of the acetone, adult animals of the species Blattella germanica strain PAULINIA are placed onto the dried surface. The exposure time is 30 minutes.
(§3) Mortality in percent (%) is determined 24 hours after contact of the insects to the treated surface. 100% mortality means that all tested insects are dead, whereas 0% means that no insect died.

[3] = tested on: adult unfed cat fleas (Ctenocephalides felis); assay: Ctenocephalides felis oral test; conditions: 48 h, 100 ppm in citrated cattle blood, after 2 days
Outline: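 About 20 adult unfed cat fleas fed through parafilm on citrated cattle blood containing compound (from a DMSO concentrate). Blood held at 37° C, fleas at room temperature. Mortality in % scored after 2 days.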

[4] = tested on: adult mosquitoes Anopheles funestus strain FUMOZ-R; assay: Anopheles funestus test (ANPHFU surface treatment & contact assay); conditions: surface concentration 20 mg/m^2, 30 minutes exposure, 24 hours after contact, read-out: mortality (efficacy)
Description: Anopheles funestus Test (ANPHFU Surface Treatment & Contact Assay)
as §1
as §2, with “mosquitoes” for “animals”, “Anopheles funestus” for “Blattella germanica”, “FUMOZ-R (Hunt et al., Med. Vet. Entomol. 2005 Sep. 19(3): 271-275)” for “PAULINIA”
as §3

[5] = tested on: adult engorged female ticks (Rhipicephalus microplus); assay: Rhipicephalus (Boophilus) microplus injection test; conditions: 168 h, 4 μg/animal, egg deposition after 7 days, read-out: efficacy (infertile eggs)
Outline: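 Compound in DMSO (10 mg per 0.5 mL, then diluted with DMSO to test concentration); 1 μL injected into the abdomen of each of five engorged females, then held in a climate chamber. Fertile egg deposition checked at 7 days; efficacy 100% = all eggs infertile, 0% = all fertile.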

[6] = tested on: green peach aphid (Myzus persicae); assay: Myzus persicae oral test; conditions: 120 h, 0.8 ppm, after 5 days
Description: Solvent: 100 parts by weight acetone
To produce a suitable preparation of active compound, 1 part by weight of active compound is mixed with the stated amount of solvent, and the concentrate is diluted with water to the desired concentration.
50 μL compound solution is filled in microtiter plates and 150 μL IPL41 insect medium (33%+15% sugar) is added to obtain a total volume of 200 μL per well. Afterwards the plates are sealed with parafilm through which a mixed population of the green peach aphid (Myzus persicae) can suck on the compound preparation.
After 5 days mortality in % is determined. 100% means all aphids have been killed and 0% means none of the aphids have been killed.

[7] = tested on: larvae of the banded cucumber beetle (Diabrotica balteata); assay: Diabrotica balteata spray test; conditions: 168 h, after 7 days, read-out: efficacy (seedling growth); for pest or weed control at 6.4 µg/disc, 20 g/ha: 20 g/ha (=6.4 μg/well)
Outline: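 Efficacy was read 7 days after infesting each unit with 10–20 banded cucumber beetle larvae, as % of seedlings growing like untreated, uninfested controls. Before infestation, wheat seeds germinated 1 day on agar (5 per well) were sprayed with the active ingredient. The active was formulated in acetone/DMF and diluted in water containing emulsifier.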

[8] = tested on: Rhipicephalus (Boophilus) microplus larvae (strain Parkhurst, resistant against synthetic pyrethroids); assay: Rhipicephalus (Boophilus) microplus in-vitro contact test, larval cattle tick; conditions: after 48 hours, read-out: efficacy (larvae dead or moribund); for pest or weed control at 1 µg/cm2, 100 g/ha: 1 μg/cm^2 (=100 g/ha); for pest or weed control at 5 µg/cm2, 500 g/ha: 5 μg/cm^2 (=500 g/ha)
Outline: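 Pyrethroid-resistant larvae (strain Parkhurst), 20–50 per tube, exposed by contact to a dried acetone film of compound (5 μg/cm² at 900 ppm) for 48 h at 27 °C and 85% humidity. Percent dead or moribund larvae scored from negative geotactic behaviour.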

Row | Compound | mortality at 100 g/ha [1] | mortality at 20 mg/m2 [2] | mortality at 100 ppm [3] | mortality at 20 mg/m2 [4] | pest or weed control at 0.004 mg [5] | mortality at 0.8 ppm [6] | pest or weed control at 6.4 µg/disc, 20 g/ha [7] | pest or weed control at 1 µg/cm2, 100 g/ha [8] | pest or weed control at 5 µg/cm2, 500 g/ha [8] | pest or weed control at 32 µg/disc, 100 g/ha ([7]; 100 g/ha (=32 μg/well))
1 | CC(NC(=O)c1cc(C(F)(F)F)cc(C(F)(F)F)c1)c1nccnc1-c1ncccn1 (racemic) [Example I-8, (rac)-N-(1-(3-(Pyrimidin-2-yl)pyrazin-2-yl)ethyl)-3,5-bis(trifluoromethyl)benzamide] | 100% | 80 to 100% | 100% | 80 to 100% | 100% | 100% | 100% | 100% | 100% | 
2 | CC(NC(=O)c1cc(Cl)cc(C(F)(F)F)c1)c1nccnc1-c1ncccn1 (racemic) [Example I-10, (rac)-3-Chloro-N-(1-(3-(pyrimidin-2-yl)pyrazin-2-yl)ethyl)-5-(trifluoromethyl)benzamide] | 100% | 80 to 100% | 100% | 80 to 100% | 100% | 90% | 100% | 90% | 80% | 100%

Source: patent US12583851B2, “Heteroaryl-substituted pyrazine derivatives as pesticides” (Elanco Animal Health GmbH, priority 2019, dated 2026)
